# Assay results: patent US20250387322A1, “DRUG DELIVERY AGENTS FOR PREVENTION OR TREATMENT OF PULMONARY DISEASE” (UNIVERSITY INDUSTRY FOUNDATION, YONSEI UNIVERSITY WONJU …, priority 2018, published 2025)
# Experiments:
# [1] = test system: pulmonary fibrosis animal model; test: Bleomycin (BLM) pulmonary fibrosis model: histopathology, immunohistochemistry, micro-CT; type: in vivo; conditions: FIG. 15A
# Description: FIG. 15A illustrates an effect of nintedanib-loaded PLGA disc particles according to one embodiment of the present disclosure, and FIGS. 15B to 15E illustrate experimental results according to each comparison group. […] FIGS. 15A to 15E illustrate results obtained by evaluating tissue morphology and degrees of inflammation and fibrosis through histopathological and immunohistochemical changes. Also, a scale bar in FIG. 15A is 100 μm. […] At this time, Nib is orally administered in the BLM and Nib administered group.
# [2] = in vivo; cited from earlier work
# [3] = test system: lung cancer metastasis model; test: Optical imaging of carrier/drug distribution in lung cancer metastasis model; type: in vivo
# Description: FIG. 9 is an optical microscope image of major organs 3 hours after injecting a lung disease drug delivery carrier according to one Example of the present disclosure and Comparative Example into a lung cancer metastasis model. A GFP filter image may identify the presence or absence of cancer and a location thereof by labeling cancer cells with GFP (green fluorescent protein).
# FIG. 10 is an optical microscope image of a lung cancer metastasis model injected with a lung disease drug delivery carrier according to one Example of the present disclosure.
# FIG. 18A is an image of photographing the locations of cancer tumor and the locations of an injected DOX-DPP (doxorubicin-loaded disc-shaped drug delivery carrier) in an animal model, and FIG. 18B illustrates comparison of the locations of cancer tumor in major organs and amounts of doxorubicin alone (free DOX) or DOX-DPP in major organs. In this regard, the scale bar in FIG. 18A means 5 mm, and the scale bar in FIG. 18B means 20 mm. In addition, the cancer is a cancer cell expressing a GFP green fluorescent protein.
# [4] = test system: C57BL/6 mice with lung cancer
# [5] = in vivo; cited from earlier work; remark: listed apart in the source
compound,measurement,setting,value
"COC(=O)c1ccc2c(c1)NC(=O)/C2=C(\Nc1ccc(N(C)C(=O)CN2CCN(C)CC2)cc1)c1ccccc1 [Nib, nintedanib]",inflammatory response and fibrous mass (histopathology),[1],an inflammatory response is shown and the formation of a dense fibrous mass is shown
Cc1ccc(=O)n(-c2ccccc2)c1 [pirfenidone],bioavailability,[2],4.7%
"COc1cccc2c1C(=O)c1c(O)c3c(c(O)c1C2=O)C[C@@](O)(C(=O)CO)C[C@@H]3O[C@H]1C[C@H](N)[C@H](O)[C@H](C)O1 [Comparative Example 2, doxorubicin]",accumulation in major organs,"[3]; 3 hours after injecting, lung cancer metastasis model, FIG. 9",accumulated in the liver and kidneys in addition to the lungs
same,distribution of drug in major organs,"[3]; animal model with GFP-expressing cancer, FIGS. 18A, 18B",the drug is distributed even in major organs
same,metastatic tumor nodules in lung,[4]; FIG. 19B,more metastatic tumor nodules appeared
same,cardiac toxicity,[4]; long-period administration,cardiac toxicity appears
same,inflammation in heart and kidney,"[4]; organ tissue images, FIG. 20",strong inflammatory responses occur in the heart and kidney
CCNC(=O)[C@@H]1CCCN1C(=O)[C@H](CCCNC(=N)N)NC(=O)[C@H](CC(C)C)NC(=O)[C@@H](CC(C)C)NC(=O)[C@H](Cc1ccc(O)cc1)NC(=O)[C@H](CO)NC(=O)[C@H](Cc1c[nH]c2ccccc12)NC(=O)[C@H](Cc1c[nH]cn1)NC(=O)[C@@H]1CCC(=O)N1 [Leuprolide],bioavailability compared to the subcutaneous route,[5],50%
